Data reported in US20200095241A1, “SUBSTITUTED 1,2,4-THIADIAZOLYLPYRROLONES AND 1,2,4-THIADIAZOLYLHYDANTOINS AND SALTS THEREOF AND USE THEREOF AS HERBICIDES” (Bayer CropScience Aktiengesellschaft, priority 2016, published 2020).

Columns and labels:
[1] = tested on: Abutilon theophrasti; test: Post-emergence herbicidal action; assay type: in vivo; details: about 3 weeks after treatment
Description: (§1) Seeds of monocotyledonous and dicotyledonous weeds and crop plants were placed in sandy loam in plastic or wood-fiber pots, covered with soil and cultivated in a greenhouse under controlled growth conditions. 2 to 3 weeks after sowing, the test plants were treated at the one-leaf stage. The compounds of the invention, formulated in the form of wettable powders (WP) or as emulsion concentrates (EC), were then sprayed onto the green parts of the plants as aqueous suspension or emulsion with addition of 0.5% additive at a water application rate of 600 l/ha (converted). After the test plants had been kept in the greenhouse under optimum growth conditions for about 3 weeks, the activity of the preparations was rated visually in comparison to untreated controls. For example, 100% activity=the plants have died, 0% activity=like control plants. Tables A1 to A12 below show the effects of selected compounds of the general formula (I) according to Tables I.1 to I.44 on various harmful plants and an application rate corresponding to 1280 g/ha or 320 g/ha, which were obtained by the experimental procedure mentioned above.

[2] = tested on: Stellaria media; test: Post-emergence herbicidal action; assay type: in vivo; details: about 3 weeks after treatment; for Stellaria media, herbicidal activity rated visually / pest or weed control at 1280 g/ha: 1280 g/ha
Description: as §1

[3] = tested on: Amaranthus retroflexus; test: Post-emergence herbicidal action; assay type: in vivo; details: about 3 weeks after treatment
Description: as §1

[4] = tested on: Stellaria media; test: Pre-emergence herbicidal action; assay type: in vivo; details: after about 3 weeks
Source text: (§2) Seeds of monocotyledonous and dicotyledonous weed plants and crop plants were placed in plastic or organic planting pots and covered with soil. The compounds of the invention, formulated in the form of wettable powders (WP) or as emulsion concentrates (EC), were then applied onto the surface of the covering soil as aqueous suspension or emulsion with addition of 0.5% additive at a water application rate of 600 l/ha (converted). After the treatment, the pots were placed in a greenhouse and kept under good growth conditions for the test plants. After about 3 weeks, the effect of the preparations was scored visually in comparison with untreated controls as percentages. For example, 100% activity=the plants have died, 0% activity=like control plants. Tables B1 to B15 below show the effects of selected compounds of the general formula (I) according to Tables I.1 to I.44 on various harmful plants and an application rate corresponding to 1280 g/ha or 320 g/ha, which were obtained by the experimental procedure mentioned above.

[5] = tested on: Poa annua; test: Pre-emergence herbicidal action; assay type: in vivo; details: 1280 g/ha, after about 3 weeks
Source text: as §2

[6] = tested on: Matricaria inodora; test: Pre-emergence herbicidal action; assay type: in vivo; details: after about 3 weeks; for Matricaria inodora, herbicidal effect scored visually / pest or weed control at 1280 g/ha: 1280 g/ha
Source text: as §2

[7] = molecular target: T1, photosystem II (PS II) (Spinacia oleracea, UniProt P69560); test: Measurement of the PS II activity in thylakoid membranes (DCPIP reduction); assay type: biochemical; details: 100 μM test compound, spinach thylakoid membranes, DCPIP 120 μM, 10 min at 22° C. with exposure to light; for inhibition at 100 µM (stock): read-out: Effect (inhibition of PS II activity)
T1 construct: the chloroplasts were osmotically ruptured and the thylakoid membranes were then obtained by centrifugation; from tissue; host or cells: fresh spinach leaves; thylakoid membranes isolated from chloroplasts
Description: Cooled fresh spinach leaves were comminuted and homogenized in 50 mM phosphate buffer, pH 6.8. 10 mM KCl, 0.34 M sucrose (sucrose buffer) (blender, 1 g of plant material/ml). The homogenate was subsequently filtered through 4 layers of Miracloth and the chloroplasts were isolated by centrifugation, i.e. 10 min of centrifugation at 4400×g (4° C.). The sediment was suspended in 25 ml of sucrose buffer and re-centrifuged for 10 min at 4400×g (4° C.). The sediment was then suspended in 40 ml of 50 mM phosphate buffer, pH 6.8, 10 mM KCl, without sucrose. In this step, the chloroplasts were osmotically ruptured and the thylakoid membranes were then obtained by centrifugation (10 min, 4400×g, 4° C.). The membrane sediment was finally suspended in 20 ml of 50 mM phosphate buffer, pH 6.8, 10 mM KCl. Following protein determination and activity determination, the membrane suspension was divided into aliquots and frozen in liquid nitrogen. The aliquots were stored at −80° C. Under these conditions, the photosystem II preparation was storage stable for at least three months. The activity determination of photosystem II (PS II) was then carried out using the following test principle:
The electron transfer from PS II to an artificial electron acceptor, 2,6-dichlorophenolindophenol (DCPIP), was measured with exposure to light. The concentration of the blue oxidized form of DCPIP was determined spectrophotometrically at wavelength λ=595 nm. […] The activity determination was carried out in microtiter plates (96 cavities) in a reaction volume of 200 μl. Here, 155 μl of dilute membrane suspension were initially charged in 50 mM of phosphate buffer, pH 6.8, 10 mM KCl. Depending on the activity of the PS II preparation, the dilution was adjusted such that the measurement of the decrease in absorption (λ=595 nm) was linear for at least 10 min. In each case 5 μl solution of the test compounds of a concentration of 100 μM in DMSO were added to the enzyme suspension; controls contained 5 μl DMSO; the final concentration of DMSO in the reaction batch was thus 2.5% (v/v); this concentration had no adverse effect on the enzymatic activity. On each microtiter plate, a known PS II inhibitor, for example metribuzin, was used as standard, which allowed the quality of the PS II test to be assessed. The reaction was started by addition of 40 μl DCPIP solution (600 μM in distilled water); the final concentration of DCPIP was 120 μM. Measurement of absorption was carried out over a period of 10 min at 22° C. and with exposure to light. Using metribuzin as comparative substance, the results for the efficacy of the compounds of the general formula (I) at 100 μM are stated in the table below using the following classification: ++++ (inhibition≥90%), +++ ([…]≥70%), ++ (70%>inhibition≥50%), + (50%>inhibition≥30%).

[8] = tested on: Setaria viridis; test: Pre-emergence herbicidal action; assay type: in vivo; details: 1280 g/ha, after about 3 weeks; for pest or weed control at 1280 g/ha: Setaria viridis, 504 h, read-out: Setaria viridis, herbicidal effect scored visually
Source text: as §2

[9] = tested on: Lolium rigidum; test: Pre-emergence herbicidal action; assay type: in vivo; details: 1280 g/ha, after about 3 weeks
Source text: as §2

[10] = tested on: Amaranthus retroflexus; test: Pre-emergence herbicidal action; assay type: in vivo; details: 1280 g/ha, after about 3 weeks
Source text: as §2

[11] = tested on: Setaria viridis; test: Post-emergence herbicidal action; assay type: in vivo; details: about 3 weeks after treatment
Description: as §1

[12] = tested on: Pharbitis purpurea; test: Post-emergence herbicidal action; assay type: in vivo; details: about 3 weeks after treatment
Description: as §1

[13] = tested on: Polygonum convolvulus; test: Post-emergence herbicidal action; assay type: in vivo; details: about 3 weeks after treatment
Description: as §1

[14] = tested on: Viola tricolor; test: Post-emergence herbicidal action; assay type: in vivo; details: 504 h, about 3 weeks after treatment, read-out: Viola tricolor, herbicidal activity rated visually
Description: as §1

[15] = tested on: Viola tricolor; test: Pre-emergence herbicidal action; assay type: in vivo; details: after about 3 weeks
Source text: as §2

[16] = tested on: Matricaria inodora; test: Post-emergence herbicidal action; assay type: in vivo; details: 1280 g/ha, about 3 weeks after treatment
Description: as §1

[17] = tested on: Polygonum convolvulus; test: Pre-emergence herbicidal action; assay type: in vivo; details: 1280 g/ha, after about 3 weeks
Source text: as §2

[18] = tested on: Alopecurus myosuroides; test: Pre-emergence herbicidal action; assay type: in vivo; details: 1280 g/ha, after about 3 weeks
Source text: as §2

[19] = tested on: Veronica persica; test: Post-emergence herbicidal action; assay type: in vivo; details: 1280 g/ha, about 3 weeks after treatment
Description: as §1

[20] = Stellaria media, 504 h, read-out: Stellaria media, herbicidal activity rated visually
[21] = Stellaria media, 504 h, 1280 g/ha, read-out: Stellaria media, herbicidal effect scored visually
[22] = Tripleurospermum inodorum, 504 h, read-out: Matricaria inodora, herbicidal effect scored visually

Compound	Abutilon theophrasti, herbicidal activity rated visually ([1]; 320 g/ha) [%]	Stellaria media, herbicidal activity rated visually [2] [%]	Stellaria media, herbicidal effect scored visually ([4]; 1280 g/ha) [%]	Poa annua, herbicidal effect scored visually [5] [%]	Matricaria inodora, herbicidal effect scored visually [6] [%]	Effect (inhibition of PS II activity) [7]	Amaranthus retroflexus, herbicidal effect scored visually [10] [%]	inhibition at 100 µM (stock) [7] [%]	pest or weed control at 1280 g/ha [2, 20] [%]	pest or weed control at 1280 g/ha [8] [%]	pest or weed control at 1280 g/ha [4, 21] [%]	pest or weed control at 1280 g/ha [6, 22] [%]	Polygonum convolvulus, herbicidal effect scored visually [17] [%]	also measured
CSc1nsc(N2C(=O)C(C)=C(C)C2O)n1 (stereo not drawn) [I.2-303]	100	100	100	90	100	+++ (90%≥inhibition≥70%)								Amaranthus retroflexus, herbicidal activity rated visually ([3]; 320 g/ha): 100%
CC1=C(C)C(O)N(c2nc(SCCOC(F)(F)F)ns2)C1=O (stereo not drawn) [I.2-338]	100	90		90	90	++++ (inhibition≥90%)	90							Setaria viridis, herbicidal effect scored visually [8]: 90%; Stellaria media, herbicidal effect scored visually ([4]; 320 g/ha): 90%; Lolium rigidum, herbicidal effect scored visually [9]: 90%
COc1nsc(N2C(=O)C(C)=C(C)C2O)n1 (stereo not drawn) [I.2-363, 3,4-Dimethyl-5-hydroxy-1-(3-methoxy-1,2,4-thiadiazol-5-yl)-1,5-dihydro-2H-pyrrol-2-one]								> 90						pest or weed control at 320 g/ha ([1]; Abutilon theophrasti, 504 h, 320 g/ha, read-out: Abutilon theophrasti, herbicidal activity rated visually): 90%; pest or weed control at 320 g/ha ([11]; Setaria viridis, 504 h, 320 g/ha, read-out: Setaria viridis, herbicidal activity rated visually): 100%; Pharbitis purpurea, herbicidal activity rated visually ([12]; 320 g/ha): 80%; Polygonum convolvulus, herbicidal activity rated visually ([13]; 320 g/ha): 100%; pest or weed control at 320 g/ha ([14]; 320 g/ha): 100%; pest or weed control at 320 g/ha ([2]; Stellaria media, 504 h, 320 g/ha, read-out: Stellaria media, herbicidal activity rated visually): 90%; pest or weed control at 320 g/ha ([15]; Viola tricolor, 504 h, 320 g/ha, read-out: Viola tricolor, herbicidal effect scored visually): 80%; pest or weed control at 320 g/ha ([4]; Stellaria media, 504 h, 320 g/ha, read-out: Stellaria media, herbicidal effect scored visually): 100%; pest or weed control at 320 g/ha ([6]; Tripleurospermum inodorum, 504 h, 320 g/ha, read-out: Matricaria inodora, herbicidal effect scored visually): 90%
CC1=C(Cl)C(=O)N(c2nc(C(C)C)ns2)C1O (stereo not drawn) [I.3-5, 3-Chloro-4-methyl-5-hydroxy-1-(3-isopropyl-1,2,4-thiadiazol-5-yl)-1,5-dihydro-2H-pyrrol-2-one]				90					100	90	90	90		Matricaria inodora, herbicidal activity rated visually [16]: 100%
CC1=C(Br)C(=O)N(c2nc(C)ns2)C1O (stereo not drawn) [I.5-2]			90		90								80	Abutilon theophrasti, herbicidal activity rated visually ([1]; 1280 g/ha): 80%; Setaria viridis, herbicidal activity rated visually ([11]; 1280 g/ha): 80%; Viola tricolor, herbicidal effect scored visually ([15]; 1280 g/ha): 90%; Alopecurus myosuroides, herbicidal effect scored visually [18]: 80%
CC(C)c1nsc(N2C(=O)N(C)CC2O)n1 (stereo not drawn) [I.13-5, 4-Hydroxy-1-methyl-3-[3-(isopropyl)-1,2,4-thiadiazol-5-yl]imidazolidin-2-one]							100	70 to 90	100	80	90	90	90	pest or weed control at 1280 g/ha ([1]; Abutilon theophrasti, 504 h, 1280 g/ha, read-out: Abutilon theophrasti, herbicidal activity rated visually): 100%; pest or weed control at 1280 g/ha ([11]; Setaria viridis, 504 h, 1280 g/ha, read-out: Setaria viridis, herbicidal activity rated visually): 100%; Pharbitis purpurea, herbicidal activity rated visually ([12]; 1280 g/ha): 90%; Polygonum convolvulus, herbicidal activity rated visually ([13]; 1280 g/ha): 90%; Veronica persica, herbicidal activity rated visually [19]: 100%; pest or weed control at 1280 g/ha ([14]; 1280 g/ha): 100%; Amaranthus retroflexus, herbicidal activity rated visually ([3]; 1280 g/ha): 100%; pest or weed control at 1280 g/ha ([15]; Viola tricolor, 504 h, 1280 g/ha, read-out: Viola tricolor, herbicidal effect scored visually): 90%
